Where no end group is shown, it is not given here.

From patent US7572436B1, “Thionin as an antineoplastic and immunostimulant” (priority 2000, dated 2009) come the findings set out here.

Data set [1] relates to IL-2. In words: ELISA of IL-2 production by splenocytes. In kind it is cell-based. As to conditions: Balb C murine spleen cells, 0.05 μg/ml PT, 48 hours. As for the experimental part: Identical plates are set up for an immunoassay and a mitogen assay. Mouse splenocytes and immuno-stimulating drugs are plated in duplicate wells (immunoassay) and triplicate wells (mitogen assay) in 96-well microplates as described above. […] At the end of the activation/proliferation period, the two identical plates are harvested as an immunoassay for cytokines or harvested as a mitogen assay (to which ^3H-thymidine has been added approximately 16-18 hours earlier).
Immunoassay kits used to detect IL-1β, IL-2, and IL-12 were the murine Quantikine M™ kits produced by R&D Systems (Minneapolis, Minn.). The general procedure is the same for all interleukin cytokines, and is described in the instructions provided by the manufacturer. […]
(§1) One hundred microliters of Substrate Solution are added to each well and incubated 30 minutes at room temperature. […] The plate is read for absorbence at 450 nm and at 540 nm for background readings.
(§2) To calculate the results, the duplicate readings for each pair of standard, control, and test samples are averaged and the average background optical density readings are subtracted. […] Picograms of cytokine are determined from the standard curve. Mitogenic activity determined from the cpm of ^3H-thymidine is compared to the concentrations of cytokine in the experimental samples in the corresponding immunoassay. […]
For orientation: An ELISA detects its analyte on a solid surface through an enzyme-linked reagent.

In data set [2] the test system is IL-12. Description: ELISA of IL-12 production by splenocytes. As to conditions: 48 hours, PT 0.05 μg/ml. Type of data set: cell-based, Balb C murine. As for the experimental part:
Identical plates are set up for an immunoassay and a mitogen assay. Mouse splenocytes and immuno-stimulating drugs are plated in duplicate wells (immunoassay) and triplicate wells (mitogen assay) in 96-well microplates as described above. The incubation at 37° C. in a humidified 5% CO2 incubator may vary from three to five days. At the end of the activation/proliferation period, the two identical plates are harvested as an immunoassay for cytokines or harvested as a mitogen assay (to which ^3H-thymidine has been added approximately 16-18 hours earlier).
Immunoassay kits used to detect IL-1β, IL-2, and IL-12 were the murine Quantikine M™ kits produced by R&D Systems (Minneapolis, Minn.). The general procedure is the same for all interleukin cytokines, and is described in the instructions provided by the manufacturer. All reagents are used at room temperature, and are prepared according to kit instructions.
The immunoassay plate is centrifuged at 200×g to pellet all cells. A 50 μl aliquot of Assay Diluent is first added to the center of each special enzyme-coated well supplied with the kit. Next, 50 μl of standard, control or test sample of supernatant from the immunoassay incubation plate is added to each well. This is incubated at room temperatures for two hours.
Liquid is aspirated from the wells, and the wells are washed five times with surfactant diluted 1:25 with distilled water. A 100 μL aliquot of Conjugate is added to each well and incubated two hours at room temperature. […]
as §1, §2

The test system of data set [3] is K562 Target Cells. Description: Natural killer assay (^51Cr release), human PBLs against K562. Type of data set: cell-based. As to conditions: PT 0.01 μg/ml. As for the experimental part:
(§3) Murine spleen cell and human peripheral blood lymphocytes (PBLs) were obtained as described in the procedure for the Mitogen Assay.
(§4) Drugs and control substances were added, using sterile techniques, to the wells of a 24-well plate, using RPMI-10 as the culture medium. Spleen cells or human lymphocytes were added last to the wells at a concentration of 4×10^6 cells per 2 ml total volume in the well. Splenocyte incubation was usually three days (65-70 hours) while human lymphocyte stimulation may be extended to four to five days. The cells were incubated at 37° C. in a humidified 5% CO2 incubator.
(§5) On the day of harvest, 10^7 target cells were labeled with 150 μCi of ^51Cr (sodium chromate). Target cells used were YAC-I (murine Lymphoma) or K562 (human chronic myelogenous leukemia). […]
(§6) The 96-well plate was centrifuged at 150×g for four minutes to gently bring the effector and target cells in contact. […] The percent release was calculated using the following formula: […]
(§7) Addition of PT stimulates both murine splenocytes and human PBLs to kill tumor cells through lysis. […] After a 30-minute incubation, the radioactivity in the supernatant fluid was counted as a measure of lysis of the target cells, which reflects NK activity. […]

The subject of data set [4] is DU-145 Target Cells. Description: Natural killer assay (^51Cr release), human PBLs against DU-145. As to conditions: PT 0.05 μg/ml. In kind it is cell-based. As for the experimental part:
as §3, §4, §5, §6, §7

Consider “Pyrularia thionin (KSCCRNTWARNCYNVCRLPGTISREICAKKCDCKIISGTTCPSDYPK; ends and bridges not checked; also: labeled with 125I) [PT]”, for which the “stimulation of production of IL-2” value in data set [1] is recorded as “not conclusive”. In addition, the IL-12 in data set [2] (Experiment 1, KLH 10 μg/ml, control 1.5) was found to be 5.6 ± 0.3 pg/mL; in data set [2] (Experiment 2, control 21), 24 ± 0.3 pg/mL. Moreover, the “% Cytotoxicity” value is 8.4 ± 0.1% in data set [3] and 11.5 ± 1.1% in data set [4].
